Read-outs that look alike come from different tables or passages of the source.
How the values were obtained:
P. falciparum 3D7 [1] = test: DAPI stain fluorescent high content imaging assay, P. falciparum 3D7 (confirmatory screen, Avery); conditions: Plasmodium falciparum; for EC50: 3D7, read-out: EC50_nM; for inhibition of growth at 5 µM: 3D7, read-out: percent_inh @ 5 uM; for inhibition of growth at 2 µM: 3D7, read-out: percent_inh @ 2 uM
P. falciparum 3D7 [2] = tested on: P. falciparum 3D7; parameters: method as in ChEMBL-NTD; conditions: ref ChEMBL-NTD, cited from earlier work
[3] = values follow the order of the source (GNF; GSK; StJude)
[4] = original screening data, source (GSK, GNF, StJude), several values separated by ';' in order of sources

Row | SMILES | EC50 (P. falciparum 3D7 [1]) [nM] | inhibition of growth at 5 µM (P. falciparum 3D7 [1]) [%] | EC50 (P. falciparum 3D7 [2]; source StJude (SJ ids)) [nM] | other results
1 | CCOc1ccc(Nc2c3ccccc3nc3ccccc23)cc1 [MMV000304] | 1060 | 97 | 5720 | 
2 | Cc1ccc2nc(C)cc(Nc3cccc(C(F)(F)F)c3)c2c1 [MMV000326] | 1170 | 98 | 879 | 
3 | CCn1c2c(c(=N)c3c1CCC3)CCCC2 [MMV000340] | 694 | 77 |  | EC50 (P. falciparum 3D7 [2]; [3]): 3120 nM
4 | Oc1ccc(Br)cc1CN1CCN(Cc2cccc(F)c2)CC1 [MMV000356] | 1030 |  |  | EC50 (P. falciparum 3D7 [2]; [4]): 1400 nM
5 | CC(C)(C)c1ccc2c(c1)CN(Cc1ccc(Cl)cc1)CO2 [MMV000442] | 362 | 98 | 255 | 
6 | CCOc1ccc2c(c1)CN(Cc1ccc(Cl)cc1)CO2 [MMV000443] | 439 | 97 | 1490 | 
7 | CCCCCn1c(=N)n(CC(O)COc2cccc(C)c2)c2ccccc21 (centres unmarked) [MMV000444] |  | 96 | 2650 | 
8 | CCCCCCn1c(=N)n(CC(O)COc2cccc(C)c2)c2ccccc21 (centres unmarked) [MMV000445] | 1140 | 98 | 1970 | 
9 | CN(C)CCCNc1c2ccccc2nc2ccccc12 [MMV000448] | 235 | 95 |  | EC50 (P. falciparum 3D7 [2]; source GNF (GNF-Pf id)): 32.7 nM; EC50 (P. falciparum 3D7 [2]; source GSK (TCMDC id)): 1040 nM; EC50 (P. falciparum 3D7 [2]; source StJude (SJ id)): 531 nM
10 | CCOc1cc2c(cc1OCC)C(c1cc(Cl)c(O)c(OCC)c1)NCC2 (centres unmarked) [MMV000481] | 1330 | 96 | 3010 | 
11 | CCOc1cc2c(cc1OCC)C(c1cc(C)c(O)c(C)c1)NCC2 (centres unmarked) [MMV000483] | 683 | 97 |  | EC50 (P. falciparum 3D7 [2]; [4]): 1830 nM
12 | CCN(CC)c1cc(C)c2cc(NC(=O)c3cccc(OC)c3)ccc2n1 [MMV000498] |  | 97 |  | EC50 (P. falciparum 3D7 [2]; source StJude): 4770 nM
13 | CCCN(CCC)CCCNC(=O)c1cc2c(-c3ccc(OC)c(OC)c3)nn(C)c2s1 [MMV000561] | 1430 | 98 |  | EC50 (P. falciparum 3D7 [2]; [4]): 4040 nM
14 | COc1ccc(C2Sc3ccccc3N=C3C2=C(O)c2ccccc23)cc1 (centres unmarked) [MMV000563] | 845 | 96 |  | EC50 (P. falciparum 3D7 [2]; source GNF): 238 nM
15 | CCc1ccc(Nc2cc(C)c3ccc(O)cc3n2)cc1 [MMV000570] | 194 | 98 |  | EC50 (P. falciparum 3D7 [2]; source StJude (SJ id)): 732 nM
16 | COc1ccc(-c2cc(=O)oc3c4c(ccc23)OCN(Cc2ccc(F)cc2)C4)cc1 [MMV000604] | 735 | 96 | 5210 | 
17 | COc1ccc(C(O)(CCC(C)C)C(CN2CCOCC2)c2ccc(Cl)cc2)cc1 (centres unmarked) [MMV000617] |  | 97 | 4610 | 
18 | CCCCC(O)(c1ccc(Cl)cc1)C(CN1CCOCC1)c1ccc(Cl)cc1 (centres unmarked) [MMV000619] | 1380 | 98 | 4010 | 
19 | CC(O)(c1ccc(Cl)cc1)C(CN1CCCCC1)c1ccccc1 (centres unmarked) [MMV000620] |  | 94 |  | EC50 (P. falciparum 3D7 [2]; source StJude): 916 nM
20 | CCCCCCC(O)(c1ccc(F)cc1)C(CN1CCOCC1)c1ccccc1 (centres unmarked) [MMV000621] |  | 93 | 3180 | 
21 | CC1CCCCN1CCCNC(=O)c1ccc2c(c1)sc1nc(-c3ccc(F)cc3)cn12 (centres unmarked) [MMV000634] | 648 | 98 |  | EC50 (P. falciparum 3D7 [2]; source StJude): 634 nM
22 | COc1ccc(NC(=O)C2c3ccccc3C(=O)N(CC(C)C)C2c2cccs2)cc1Cl (centres unmarked) [MMV000642] | 20.2 | 100 |  | EC50 (P. falciparum 3D7 [2]; source GNF (GNF-Pf id)): 91.4 nM; EC50 (P. falciparum 3D7 [2]; source StJude (SJ id)): 119 nM
23 | COc1ccccc1CNC(=O)C1c2ccccc2C(=O)N(CC(C)C)C1c1cccs1 (centres unmarked) [MMV000648] |  | 97 |  | EC50 (P. falciparum 3D7 [2]; source StJude): 3160 nM

Row | SMILES | EC50 (P. falciparum 3D7 [1]) [nM] | inhibition of growth at 5 µM (P. falciparum 3D7 [1]) [%] | EC50 (P. falciparum 3D7 [2]; source StJude (SJ ids)) [nM] | other results
24 | CCOc1ccccc1CNC(=O)C1c2ccccc2C(=O)N(CC(C)C)C1c1cccs1 (centres unmarked) [MMV000653] | 1320 | 97 |  | EC50 (P. falciparum 3D7 [2]; source StJude): 1430 nM
25 | COc1ccc(NC(=O)C2c3ccccc3C(=O)N(CC(C)C)C2c2cccs2)cc1 (centres unmarked) [MMV000662] | 36.7 | 100 |  | EC50 (P. falciparum 3D7 [2]; source StJude (SJ id)): 102 nM
26 | Cc1ccc(C2CC(C(F)(F)F)n3nc(C(=O)N4CCN(C(c5ccccc5)c5ccccc5)CC4)cc3N2)cc1 (centres unmarked) [MMV000699] | 454 | 98 | 668 | 
27 | Cc1ccnc(NC(c2cccc(OCc3ccccc3)c2)c2ccc3cccnc3c2O)c1 (centres unmarked) [MMV000720] | 1020 | 97 | 1810 | EC50 (P. falciparum 3D7 [2]; source GSK (TCMDC ids)): 864 nM
28 | Oc1c(CN2CCN(c3ccccc3F)CC2)cc(Br)c2cccnc12 [MMV000760] |  | 91 |  | EC50 (P. falciparum 3D7 [2]; [4]): 3760 nM
29 | CCCOCc1cc(CN2CCN(c3cccc(Cl)c3)CC2)c(O)c2ncccc12 [MMV000787] | 407 | 97 | 1100 | 
30 | CC(C)OCc1cc(CN2CCN(c3cccc(Cl)c3)CC2)c(O)c2ncccc12 [MMV000788] | 697 | 98 |  | EC50 (P. falciparum 3D7 [2]; source StJude): 941 nM
31 | OC(CNCc1ccccc1)Cn1c2ccccc2c2ccccc21 (centres unmarked) [MMV000839] | 1080 | 95 | 3760 | 
32 | OC(CNC1CCCC1)Cn1c2ccccc2c2ccccc21 (centres unmarked) [MMV000848] | 660 | 97 |  | EC50 (P. falciparum 3D7 [2]; [4]): 1080 nM
33 | Cc1ccc(NC(=O)Nc2cccc(Cl)c2)cc1F [MMV000911] |  | 52 |  | EC50 (P. falciparum 3D7 [2]; [4]): 15000 nM
34 | COc1ccc2c(c1OC)C(=O)N1c3ccccc3N=C(c3ccc(C)cc3)CC21 (centres unmarked) [MMV000917] | 1240 | 93 | 2530 | 
35 | O=C1CC(O)(C(F)(F)C(F)(F)F)Oc2ccccc21 (centres unmarked) [MMV000972] |  | 95 |  | EC50 (P. falciparum 3D7 [2]; [4]): 2570 nM
36 | Cc1ccc(Nc2nc(NCCO)c3ccccc3n2)cc1C [MMV001038] | 428 |  |  | EC50 (P. falciparum 3D7 [2]; source GNF (GNF-Pf id)): 175 nM; EC50 (P. falciparum 3D7 [2]; source StJude (SJ id)): 843 nM
37 | OCCNc1nc(Nc2ccc(Cl)c(Cl)c2)nc2ccccc12 [MMV001041] | 590 |  |  | inhibition of growth at 2 µM (P. falciparum 3D7 [1]): 94%; EC50 (P. falciparum 3D7 [2]; source GNF): 140 nM; EC50 (P. falciparum 3D7 [2]; source StJude): 15000 nM
38 | CC(C)c1ccc(CNCC(O)c2ccccc2)cc1 (centres unmarked) [MMV001049] | 1260 | 96 |  | EC50 (P. falciparum 3D7 [2]; [4]): 1350 nM
39 | CCOc1cccc2sc(N(Cc3cccnc3)C(=O)C3CCCCC3)nc12 [MMV001230] |  | 94 |  | EC50 (P. falciparum 3D7 [2]; source StJude): 3040 nM
40 | COc1ccc2sc(N(Cc3cccnc3)C(=O)c3ccc(C#N)cc3)nc2c1 [MMV001239] |  |  |  | inhibition of growth at 2 µM (P. falciparum 3D7 [1]): 89%; EC50 (P. falciparum 3D7 [2]; [3]): 15000 nM
41 | COc1ccc(C)c2sc(N(Cc3cccnc3)C(=O)c3ccc(C#N)cc3)nc12 [MMV001241] |  | 91 | 15000 | 
42 | CSc1ccccc1C(=O)Nc1nc(-c2ccccn2)cs1 [MMV001246] | 206 | 98 |  | EC50 (P. falciparum 3D7 [2]; source StJude (SJ id)): 6820 nM
43 | CCCCc1ccc(NS(=O)(=O)c2cc3c4c(c2)CCN4C(=O)CC3)cc1 [MMV001255] | 538 | 96 |  | EC50 (P. falciparum 3D7 [2]; source StJude): 15000 nM
44 | O=C(Nc1ccc(Br)cc1)Nc1cccc(Cl)c1 [MMV001318] |  | 94 |  | EC50 (P. falciparum 3D7 [2]; [4]): 15000 nM
45 | CC1CC(C)CN(C(=O)c2ccc(Cl)cc2Cl)C1 (centres unmarked) [MMV001344] | 756 | 95 |  | EC50 (P. falciparum 3D7 [2]; [4]): 1320 nM
46 | CCN(CC)CCNc1ccnc2cc(Cl)ccc12 [MMV006087] | 58.1 |  |  | EC50 (P. falciparum 3D7 [2]; source GNF (GNF-Pf id)): 7.16 nM

From publication PMC3684613 (PLoS ONE, 2013)
